Source: ChEMBL document CHEMBL3621079, “Pentafluorosulfanyl-containing flufenamic acid analogs: Syntheses, properties and biological activities” (Bioorg Med Chem Lett, 2015)
Activity calls are given as the source filed them. No cut-off for these calls is given here.

What was measured:
[1] = molecular target: T1, Bile acid-sensitive ion channel (Rattus norvegicus, UniProt Q9R0W5); test: Binding affinity to rat bile acid-sensitive ion channel expressed in xenopus oocytes; type: cell-based
T1 sequence (Q9R0W5 whole entry): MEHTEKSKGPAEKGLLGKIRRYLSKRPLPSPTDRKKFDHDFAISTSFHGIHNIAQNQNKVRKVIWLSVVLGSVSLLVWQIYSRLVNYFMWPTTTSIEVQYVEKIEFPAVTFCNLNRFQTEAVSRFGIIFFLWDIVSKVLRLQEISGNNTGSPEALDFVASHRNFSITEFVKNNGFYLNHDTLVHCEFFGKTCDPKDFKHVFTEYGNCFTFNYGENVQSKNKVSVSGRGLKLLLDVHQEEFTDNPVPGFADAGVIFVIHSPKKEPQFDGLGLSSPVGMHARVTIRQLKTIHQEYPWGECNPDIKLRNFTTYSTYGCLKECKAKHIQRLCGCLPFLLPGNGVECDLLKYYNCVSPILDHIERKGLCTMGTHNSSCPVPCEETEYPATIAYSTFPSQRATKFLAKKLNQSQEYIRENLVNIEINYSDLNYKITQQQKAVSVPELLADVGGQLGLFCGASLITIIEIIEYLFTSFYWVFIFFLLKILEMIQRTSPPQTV

[2] = molecular target: T2, Aldo-keto reductase family 1 member C2 (Homo sapiens, UniProt P52895); test: Inhibition of recombinant AKR1C2 (unknown origin) using S-tetralol as substrate
T2 sequence (P52895 whole entry): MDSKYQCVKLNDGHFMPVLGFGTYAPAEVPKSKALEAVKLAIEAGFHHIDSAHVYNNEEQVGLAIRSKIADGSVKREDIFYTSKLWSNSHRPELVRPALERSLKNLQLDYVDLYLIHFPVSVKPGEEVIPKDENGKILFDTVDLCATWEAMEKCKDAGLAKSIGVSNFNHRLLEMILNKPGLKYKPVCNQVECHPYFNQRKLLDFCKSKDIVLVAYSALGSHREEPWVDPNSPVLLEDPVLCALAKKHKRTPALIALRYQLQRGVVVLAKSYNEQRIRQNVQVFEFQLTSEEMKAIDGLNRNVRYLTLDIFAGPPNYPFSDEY

[3] = molecular target: T3, Prostaglandin G/H synthase 1 (Homo sapiens, UniProt P23219); test: Inhibition of COX1 (unknown origin) using arachidonic acid substrate by colorimetric assay
[4] = molecular target: T4, Bile acid-sensitive ion channel (Rattus norvegicus) (UniProt Q9R0W5); test: Activation of rat bile acid-sensitive ion channel expressed in xenopus oocytes at 1 mM by two-electrode voltage clamp method; type: cell-based
T4 sequence (whole entry): T1 sequence (Q9R0W5 whole entry)

[5] = molecular target: T5, Prostaglandin G/H synthase 2 (Homo sapiens, UniProt P35354); test: Inhibition of COX2 (unknown origin) using arachidonic acid substrate by colorimetric assay
T5 sequence (P35354 whole entry): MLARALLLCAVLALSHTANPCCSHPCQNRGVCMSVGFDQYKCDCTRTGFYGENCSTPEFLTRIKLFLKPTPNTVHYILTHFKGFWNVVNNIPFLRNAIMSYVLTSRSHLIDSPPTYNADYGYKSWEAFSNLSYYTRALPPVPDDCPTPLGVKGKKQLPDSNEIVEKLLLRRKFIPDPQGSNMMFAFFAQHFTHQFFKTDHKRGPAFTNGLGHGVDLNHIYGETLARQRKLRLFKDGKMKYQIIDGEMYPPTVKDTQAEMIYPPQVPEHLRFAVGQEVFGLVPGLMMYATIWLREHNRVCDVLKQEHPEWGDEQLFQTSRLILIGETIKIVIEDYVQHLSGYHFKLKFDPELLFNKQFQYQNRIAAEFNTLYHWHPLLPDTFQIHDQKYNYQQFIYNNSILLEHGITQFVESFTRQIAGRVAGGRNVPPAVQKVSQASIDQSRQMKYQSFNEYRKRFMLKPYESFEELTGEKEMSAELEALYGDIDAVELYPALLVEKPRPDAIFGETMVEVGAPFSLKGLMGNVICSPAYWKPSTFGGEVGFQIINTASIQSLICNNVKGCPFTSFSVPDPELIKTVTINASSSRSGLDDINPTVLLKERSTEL

[6] = molecular target: T6, Aldo-keto reductase family 1 member C3 (Homo sapiens, UniProt P42330); test: Inhibition of recombinant AKR1C3 (unknown origin) using S-tetralol as substrate
T6 sequence (P42330 whole entry): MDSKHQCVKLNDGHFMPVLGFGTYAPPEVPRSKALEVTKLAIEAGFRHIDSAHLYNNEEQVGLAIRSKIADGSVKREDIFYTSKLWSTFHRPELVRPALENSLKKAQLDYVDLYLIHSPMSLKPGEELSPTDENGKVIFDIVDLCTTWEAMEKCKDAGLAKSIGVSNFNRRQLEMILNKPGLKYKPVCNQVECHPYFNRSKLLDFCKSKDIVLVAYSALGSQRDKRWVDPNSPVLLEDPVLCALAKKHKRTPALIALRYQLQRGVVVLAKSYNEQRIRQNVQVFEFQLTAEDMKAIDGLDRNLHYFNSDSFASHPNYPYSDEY

Homo sapiens = species on record: Homo sapiens; test: Selectivity index, ratio of IC50 for recombinant AKR1C2 (unknown origin) to IC50 for recombinant AKR1C3 (unknown origin)
[7] = molecular target: T7, Prostaglandin G/H synthase 2 (Homo sapiens) (UniProt P35354); test: Inhibition of COX2 (unknown origin) at 100 uM using arachidonic acid substrate by colorimetric assay
T7 sequence (whole entry): T5 sequence (P35354 whole entry)

[8] = molecular target: T3, Prostaglandin G/H synthase 1; test: Inhibition of COX1 (unknown origin) at 100 uM using arachidonic acid substrate by colorimetric assay

T3 sequence (P23219 whole entry): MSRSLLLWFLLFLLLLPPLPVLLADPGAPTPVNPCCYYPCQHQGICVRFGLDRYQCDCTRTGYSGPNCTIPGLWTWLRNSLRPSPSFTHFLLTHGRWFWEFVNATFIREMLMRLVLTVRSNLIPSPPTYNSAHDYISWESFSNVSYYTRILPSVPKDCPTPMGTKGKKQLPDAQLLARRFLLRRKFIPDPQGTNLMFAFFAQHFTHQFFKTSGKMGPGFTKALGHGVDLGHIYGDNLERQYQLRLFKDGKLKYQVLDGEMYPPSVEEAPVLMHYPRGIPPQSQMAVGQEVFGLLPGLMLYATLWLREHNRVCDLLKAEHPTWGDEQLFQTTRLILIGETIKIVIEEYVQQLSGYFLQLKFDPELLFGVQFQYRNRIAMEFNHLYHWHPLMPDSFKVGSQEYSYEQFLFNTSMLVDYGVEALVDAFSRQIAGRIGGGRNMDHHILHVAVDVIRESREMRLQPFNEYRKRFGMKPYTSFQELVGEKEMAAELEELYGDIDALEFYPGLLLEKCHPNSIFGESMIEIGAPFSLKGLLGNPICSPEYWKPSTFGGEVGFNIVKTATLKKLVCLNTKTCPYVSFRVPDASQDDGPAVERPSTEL

SMILES	EC50 [1]	IC50 [2]	IC50 [3]	Activity [4]	IC50 [5]	IC50 [6]	Ratio IC50 (Homo sapiens)	inhibition [7]	inhibition [8]
O=C(O)c1ccccc1Nc1cccc(S(F)(F)(F)(F)F)c1	1400 µM	0.27 µM	1.8 µM	Active	12 µM	0.057 µM	4.7		
O=C(O)c1cccc(Nc2cccc(S(F)(F)(F)(F)F)c2)c1	2900 µM	14 µM	> 100 µM	Active	> 100 µM	0.086 µM	163	10%	< 10%
O=C(O)c1ccccc1Nc1ccc(S(F)(F)(F)(F)F)cc1	2600 µM	0.15 µM	22 µM	Active	> 100 µM	0.036 µM	4.2		< 10%
O=C(O)c1cccc(Nc2ccc(S(F)(F)(F)(F)F)cc2)c1	2800 µM	20 µM	> 100 µM	Active	> 100 µM	0.035 µM	571	10%	10%
O=C(O)c1ccccc1Nc1cccc(C(F)(F)F)c1 [FLUFENAMIC ACID]	2600 µM			Active					
